Data from patent publication US20200031866A1, “PEPTIDE INHIBITORS OF SODIUM CHANNELS” (SPYRYX BIOSCIENCES, INC., priority 2016, published 2020).
Square brackets hold non-standard residues; d marks the D form. Peptide text beside a SMILES is read from it.

Tests used:
alpha-ENaC = target: T1, alpha-ENaC (Homo sapiens, UniProt P37088); assay: Internalization of alpha-ENaC in HEK293T cells, GFP-tagged alpha-ENaC co-expressed only with gamma ENaC and no beta-ENaC; type: cell-based; conditions: FIG. 6
T1 construct: expressed in transfected cells; host or cells: HEK293T
T1 sequence (P37088 1-669): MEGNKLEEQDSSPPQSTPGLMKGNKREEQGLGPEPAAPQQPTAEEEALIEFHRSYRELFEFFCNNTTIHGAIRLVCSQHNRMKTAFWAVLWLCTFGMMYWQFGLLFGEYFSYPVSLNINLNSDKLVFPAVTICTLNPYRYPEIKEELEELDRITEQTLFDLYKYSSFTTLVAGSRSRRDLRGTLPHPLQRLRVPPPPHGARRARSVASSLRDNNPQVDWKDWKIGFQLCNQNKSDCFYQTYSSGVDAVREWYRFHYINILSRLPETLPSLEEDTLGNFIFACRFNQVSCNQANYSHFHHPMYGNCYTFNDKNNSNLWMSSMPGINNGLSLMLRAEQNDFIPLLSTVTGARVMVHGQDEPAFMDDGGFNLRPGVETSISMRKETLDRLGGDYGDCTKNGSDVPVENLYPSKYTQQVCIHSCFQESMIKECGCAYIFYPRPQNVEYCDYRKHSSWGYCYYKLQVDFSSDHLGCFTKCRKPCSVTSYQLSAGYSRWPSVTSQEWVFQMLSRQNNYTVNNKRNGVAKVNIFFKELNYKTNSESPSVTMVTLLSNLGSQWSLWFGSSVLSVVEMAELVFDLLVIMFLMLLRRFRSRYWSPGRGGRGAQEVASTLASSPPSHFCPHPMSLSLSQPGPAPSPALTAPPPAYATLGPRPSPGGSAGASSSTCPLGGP
Experimental: […] Am J Physiol Lung Cell Mol Physiol. 2013 December; 305(12):L990-L1001. doi: 10.1152/ajplung.00103.2013. Epub 2013 October; Garland et al. Proc Natl Acad Sci USA. 2013 Oct. 1; 110(40):15973-8. doi: 10.1073/pnas.1311999110. Epub 2013 Sep. 16.; Tan et al. J Physiol. 2014 Dec. 1; 592(Pt 23):5251-68). Twenty-four hours later, peptide or vehicle control were added at t=0 and fluorescence was read using a Tecan M1000 plate reader 3 h later. Fluorescence was read at 488 nm (excitation)/510 nm (emission).

[1] = test system: tracheal mucus velocity (TMV) in sheep; assay: CFTRinh-172-induced slowing of tracheal mucus velocity (TMV) in sheep; type: in vivo; conditions: for average TMV response between 5-12h: mean±se, 3 sheep/group, saline 50±0.5%
Experimental: All procedures used were approved by the Mount Sinai Medical Center Animal Research Committee. The sheep were conscious and intubated for these studies. All instrumentation was performed under local anesthesia. After topical anesthesia of the nasal passages with 2% lidocaine solution, the sheep were nasally intubated, with an endotracheal tube […] in diameter (Mallinckrodt Med Inc., St. Louis, Mo.) shortened by 6 cm. The cuff of the tube was placed just below the vocal cords (verified by fluoroscopy) to allow for maximal exposure of the tracheal surface area. The inspired air was warmed and humidified using a Bennett Humidifier (Puritan-Bennett, Lenexa, Kans.). To minimize possible impairment of TMV caused by the inflated cuff, the endotracheal tube cuff remained deflated throughout the study except for the period of drug delivery.
TMV was measured in vivo by a roentgenographic technique. Between 8 and 10 radiopaque Teflon/bismuth trioxide disks, 1-mm diameter, 0.8-mm thick and 1.5-2 mg in weight, were insufflated onto the trachea. A modified suction catheter connected to a source of continuous compressed air at a flow of 3-4 L/min was used to introduce the particles via the endotracheal tube. The catheter remained within the endotracheal tube only during particle delivery, so that no contact with the tracheal surface is made. The cephalad-axial velocities of the individual disks were recorded on videotape from a portable image intensifier unit. Individual disk velocities were calculated by measuring the distance traveled by each disk during a 1-min observation period. For each run, the mean value of all individual disk velocities was calculated. A collar containing radiopaque reference markers of known length was worn by the sheep, and used as a standard to correct for magnification effects inherent in the fluoroscopy unit.
Aerosols were generated using an Airlife medication nebulizer. To control aerosol delivery a dosimetry system activated by a piston respirator (Harvard Apparatus Respiratory Pump, Holliston, Mass.) was used. The nebulizer was connected to a T-piece with one end attached to the respiratory pump and the other to the animal's tracheal tube. Nebulized aerosols were delivered directly into the trachea only during inspiration at a frequency of 20 breaths/min and at a tidal volume of 500 mL.
Ten (10) mg of CFTRinh-172 was dissolved in 0.3 mL of DMSO. The solution was vortexed and then 2.7 mL of ethanol was added bringing the final nebulized solution of CFTRinh to 10 mg/3 mL. […]
After a 10 minute period on the humidifier, a baseline TMV was obtained Immediately following the baseline, the sheep were challenged with an aerosol of 10 mg of CFTRinh. TMV was measured hourly for 4h. […] TMV was then measured from 5-12h following treatment. […]

Compound: CC[C@H](C)[C@H](NC(=O)[C@@H]1CCCN1C(=O)[C@H](CC(C)C)NC(=O)[C@@H](C)NC(=O)[C@@H](C)N)C(=O)N1CCC[C@H]1C(=O)N[C@@H](CC(C)C)C(=O)N[C@@H](CC(=O)O)C(=O)N[C@@H](CCC(N)=O)C(=O)N[C@H](C(=O)N[C@H](C)C(=O)N[C@H](C)C(N)=O)[C@@H](C)O [SEQ ID NO:128, aaLPIPLDQTaa] (H-[dA][dA]LPIPLDQT[dA][dA]-NH2)
- effect on alpha-ENaC (alpha-ENaC): no effect
- average TMV response between 5-12h ([1]; 1 mg/kg nebulized 4 h after 10 mg CFTRinh): 73.7±0.7%
- average TMV response between 5-12h ([1]; 2 mg/kg nebulized 4 h after 10 mg CFTRinh): 88.4±0.6%
- average TMV response between 5-12h ([1]; 4 mg/kg nebulized 4 h after 10 mg CFTRinh): 103.0±0.6%
- reversal of CFTRinh-induced slowing of TMV ([1]; reversal dose dependent, FIGS. 8A-8C): can reverse CFTRinh-induced slowing of TMV
